Reference: PubChem BioAssay AID330 (DTP/NCI, 2004)
Several values for one entry are separate records, joined by “and”; a condition that tells them apart may be missing. Equal entries are not always repeated. Toxic doses and inconclusive results are not listed.

Tested on: P388 leukemia ip, CD2F1 mice, survival T/C
Test: NCI In Vivo Anticancer Drug Screen. Data for tumor model P388 Leukemia (intraperitoneal) in CD2F1 (CDF1) mice
Settings: endpoint: median survival time, higher = longer survival
In short: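 Mice carrying the transplanted tumor received test compound or vehicle. Survival was recorded in each group, and the value is the treated-group measurement divided by that of the vehicle-treated control group.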

[1] = dose: 50.0 mg/kg/injection, schedule: Q01DX009 (ip), vehicle: saline with Tween-80
[2] = dose: 100.0 mg/kg/injection, schedule: Q01DX009 (ip), vehicle: saline with Tween-80
[3] = dose: 200.0 mg/kg/injection, schedule: Q01DX009 (ip), vehicle: saline with Tween-80
[4] = dose: 50.0 mg/kg/injection, schedule: Q01DX009 (ip), vehicle: Klucel (hydroxypropylcellulose) (HPC)
[5] = dose: 100.0 mg/kg/injection, schedule: Q01DX009 (ip), vehicle: Klucel (hydroxypropylcellulose) (HPC)
[6] = dose: 200.0 mg/kg/injection, schedule: Q01DX009 (ip), vehicle: Klucel (hydroxypropylcellulose) (HPC)
[7] = dose: 50.0 mg/kg/injection, schedule: Q01DX005 (ip), vehicle: saline with Tween-80
[8] = dose: 100.0 mg/kg/injection, schedule: Q01DX005 (ip), vehicle: saline with Tween-80
[9] = dose: 200.0 mg/kg/injection, schedule: Q01DX005 (ip), vehicle: saline with Tween-80

Cc1cccc(C)c1NC1=C(Cl)C(=O)c2ccccc2C1=O
T/C (dose: 3.75 mg/kg/injection, schedule: Q01DX005 (ip), vehicle: saline with Tween-80): 103 % of control
T/C (dose: 7.5 mg/kg/injection, schedule: Q01DX005 (ip), vehicle: saline with Tween-80): 97 % of control
T/C (dose: 15.0 mg/kg/injection, schedule: Q01DX005 (ip), vehicle: saline with Tween-80): 100 % of control

CC1(C)CC(=O)C2=C(C1)Nn1c(nnc1C(F)(F)F)S2
T/C [1]: 102 % of control
T/C [2]: 110 % of control
T/C [3]: 105 % of control

O=S(=O)(Nc1ccc(O)c(Cl)c1)c1ccccc1
T/C (dose: 100.0 mg/kg/injection, schedule: Q04DX003 (ip), vehicle: saline with Tween-80): 100 % of control
T/C (dose: 200.0 mg/kg/injection, schedule: Q04DX003 (ip), vehicle: saline with Tween-80): 100 % of control
T/C (dose: 400.0 mg/kg/injection, schedule: Q04DX003 (ip), vehicle: saline with Tween-80): 100 % of control

Cc1ccc(S(=O)(=O)OC2CCN(C)CC2)cc1
T/C (dose: 25.0 mg/kg/injection, schedule: Q04DX003 (ip), vehicle: saline): 113 % of control
T/C (dose: 50.0 mg/kg/injection, schedule: Q04DX003 (ip), vehicle: saline): 102 % of control
T/C (dose: 100.0 mg/kg/injection, schedule: Q04DX003 (ip), vehicle: saline): 99 % of control
T/C (dose: 200.0 mg/kg/injection, schedule: Q04DX003 (ip), vehicle: saline): 104 % of control

CN(C)CCC(/C=C/c1ccco1)=N\NC(=S)Nc1ccc(Cl)cc1
T/C (dose: 100.0 mg/kg/injection, schedule: Q01DX001 (ip), vehicle: saline with Tween-80): 97 % of control
T/C (dose: 200.0 mg/kg/injection, schedule: Q01DX001 (ip), vehicle: saline with Tween-80): 101 % of control
T/C (dose: 400.0 mg/kg/injection, schedule: Q01DX001 (ip), vehicle: saline with Tween-80): 103 % of control

NC1=C(Cl)C(=O)C(N)=C(Cl)C1=O
T/C (dose: 25.0 mg/kg/injection, schedule: Q01DX009 (ip), vehicle: saline with Tween-80): 113 % of control
T/C [4]: 100 % of control
T/C [1]: 100 % of control
T/C [5]: 103 % of control
T/C [2]: 100 % of control
T/C [6]: 105 % of control
T/C [3]: 94 % of control
T/C (dose: 400.0 mg/kg/injection, schedule: Q01DX009 (ip), vehicle: Klucel (hydroxypropylcellulose) (HPC)): 99 % of control

c1cc[c]([Sn]2([c]3ccccc3)[O]CCNCC[O]2)cc1
T/C (dose: 25.0 mg/kg/injection, schedule: Q01DX005 (ip), vehicle: saline): 150 % of control
T/C (dose: 50.0 mg/kg/injection, schedule: Q01DX005 (ip), vehicle: saline): 153 % of control
T/C (dose: 100.0 mg/kg/injection, schedule: Q01DX005 (ip), vehicle: saline): 155 % of control and 160 % of control

FC(F)(F)c1cccc(C(OCC2CO2)(C(F)(F)F)C(F)(F)F)c1 (centres undefined)
T/C [4]: 99 % of control
T/C [5]: 96 % of control
T/C [6]: 102 % of control

Cc1ccc2nc(NC(=S)S)sc2c1
T/C (dose: 6.25 mg/kg/injection, schedule: Q01DX009 (ip), vehicle: Klucel (hydroxypropylcellulose) (HPC)): 100 % of control
T/C (dose: 12.5 mg/kg/injection, schedule: Q01DX009 (ip), vehicle: Klucel (hydroxypropylcellulose) (HPC)): 107 % of control
T/C (dose: 25.0 mg/kg/injection, schedule: Q01DX009 (ip), vehicle: Klucel (hydroxypropylcellulose) (HPC)): 113 % of control
T/C [5]: 87 % of control

CCOC(=O)/N=[N+](\[O-])c1ccccc1
T/C (dose: 0.2 mg/kg/injection, schedule: Q01DX009 (ip), vehicle: saline with Tween-80): 103 % of control
T/C (dose: 0.39 mg/kg/injection, schedule: Q01DX009 (ip), vehicle: saline with Tween-80): 103 % of control
T/C (dose: 0.78 mg/kg/injection, schedule: Q01DX009 (ip), vehicle: saline with Tween-80): 106 % of control and 95 % of control
T/C (dose: 1.56 mg/kg/injection, schedule: Q01DX009 (ip), vehicle: saline with Tween-80): 109 % of control and 95 % of control
T/C (dose: 3.12 mg/kg/injection, schedule: Q01DX009 (ip), vehicle: saline with Tween-80): 103 % of control and 123 % of control
T/C (dose: 3.12 mg/kg/injection, schedule: Q04DX003 (ip), vehicle: saline with Tween-80): 112 % of control and 115 % of control
T/C (dose: 6.25 mg/kg/injection, schedule: Q01DX009 (ip), vehicle: saline with Tween-80): 107 % of control and 115 % of control
T/C (dose: 6.25 mg/kg/injection, schedule: Q04DX003 (ip), vehicle: saline with Tween-80): 99 % of control and 110 % of control
T/C (dose: 12.5 mg/kg/injection, schedule: Q01DX009 (ip), vehicle: saline with Tween-80): 115 % of control
T/C (dose: 12.5 mg/kg/injection, schedule: Q04DX003 (ip), vehicle: saline with Tween-80): 112 % of control and 117 % of control and 123 % of control
T/C (dose: 25.0 mg/kg/injection, schedule: Q04DX003 (ip), vehicle: saline with Tween-80): 110 % of control

COc1cc(C2c3cc(OC(C)=O)c(OC)cc3CC3C(=O)OCC32)ccc1OC(C)=O (centres undefined)
T/C (dose: 50.0 mg/kg/injection, schedule: Q01DX005 (ip), vehicle: Klucel (hydroxypropylcellulose) (HPC)): 95 % of control
T/C (dose: 100.0 mg/kg/injection, schedule: Q01DX005 (ip), vehicle: Klucel (hydroxypropylcellulose) (HPC)): 93 % of control
T/C (dose: 200.0 mg/kg/injection, schedule: Q01DX005 (ip), vehicle: Klucel (hydroxypropylcellulose) (HPC)): 90 % of control

CN(C)CCCNc1cccc2c1C(=O)c1cccc(NCCCN(C)C)c1C2=O
T/C (dose: 4.0 mg/kg/injection, schedule: Q01DX009 (ip), vehicle: acid diluted with saline): 105 % of control
T/C (dose: 7.5 mg/kg/injection, schedule: Q01DX009 (ip), vehicle: saline): 101 % of control
T/C (dose: 8.0 mg/kg/injection, schedule: Q01DX009 (ip), vehicle: acid diluted with saline): 105 % of control
T/C (dose: 12.5 mg/kg/injection, schedule: Q01DX005 (ip), vehicle: water): 108 % of control
T/C (dose: 12.5 mg/kg/injection, schedule: Q01DX009 (ip), vehicle: water): 100 % of control
T/C (dose: 15.0 mg/kg/injection, schedule: Q01DX009 (ip), vehicle: saline): 108 % of control
T/C (dose: 16.0 mg/kg/injection, schedule: Q01DX009 (ip), vehicle: acid diluted with saline): 104 % of control
T/C (dose: 25.0 mg/kg/injection, schedule: Q01DX005 (ip), vehicle: water): 114 % of control
T/C (dose: 25.0 mg/kg/injection, schedule: Q01DX009 (ip), vehicle: water): 100 % of control
T/C (dose: 30.0 mg/kg/injection, schedule: Q01DX009 (ip), vehicle: saline): 100 % of control
T/C (dose: 32.0 mg/kg/injection, schedule: Q01DX009 (ip), vehicle: acid diluted with saline): 104 % of control
T/C (dose: 50.0 mg/kg/injection, schedule: Q01DX005 (ip), vehicle: water): 102 % of control
T/C (dose: 50.0 mg/kg/injection, schedule: Q01DX009 (ip), vehicle: water): 100 % of control
T/C (dose: 60.0 mg/kg/injection, schedule: Q01DX009 (ip), vehicle: saline): 102 % of control
T/C (dose: 64.0 mg/kg/injection, schedule: Q01DX009 (ip), vehicle: acid diluted with saline): 102 % of control

O=C(O)CC(OC(=O)CP(=O)(O)O)C(=O)O (centres undefined)
T/C (dose: 100.0 mg/kg/injection, schedule: Q04DX002 (ip), vehicle: saline): 105 % of control
T/C (dose: 200.0 mg/kg/injection, schedule: Q04DX002 (ip), vehicle: saline): 93 % of control
T/C (dose: 400.0 mg/kg/injection, schedule: Q04DX002 (ip), vehicle: saline): 102 % of control

OC1CCc2ncccc2O1 (centres undefined)
T/C (dose: 50.0 mg/kg/injection, schedule: Q01DX009 (ip), vehicle: saline): 102 % of control
T/C (dose: 100.0 mg/kg/injection, schedule: Q01DX009 (ip), vehicle: saline): 102 % of control
T/C (dose: 200.0 mg/kg/injection, schedule: Q01DX009 (ip), vehicle: saline): 102 % of control

CCCCOC1OCN(CCCN(C)C)CC1(C)C (centres undefined)
T/C [1]: 108 % of control
T/C [2]: 122 % of control
T/C [3]: 122 % of control

O=C1c2cccc3cccc(c23)C(=O)N1CC1CCCO1 (centres undefined)
T/C [7]: 99 % of control
T/C [8]: 101 % of control
T/C [9]: 94 % of control

Nc1ccc([N+](=O)[O-])cc1C(=O)NCCc1ccncc1
T/C [7]: 95 % of control
T/C [8]: 97 % of control
T/C [9]: 99 % of control

Nc1nc(Cc2ccccc2)c(-c2ccccc2)c(-c2nc(N)nc(Cc3ccccc3)c2-c2ccccc2)n1
T/C (dose: 60.0 mg/kg/injection, schedule: Q01DX005 (ip), vehicle: saline with Tween-80): 100 % of control
T/C (dose: 120.0 mg/kg/injection, schedule: Q01DX005 (ip), vehicle: saline with Tween-80): 105 % of control
T/C (dose: 240.0 mg/kg/injection, schedule: Q01DX005 (ip), vehicle: saline with Tween-80): 99 % of control

c1ccc(Nc2nnc3nc(-c4ccccc4)c(-c4ccccc4)nn23)cc1
T/C [7]: 91 % of control
T/C [8]: 90 % of control
T/C [9]: 102 % of control
